Legend:
[1] = test system: adult dog ticks (Rhipicephalus sanguineus); assay: Rhipicephalus sanguineus in vitro contact test with adult brown dog ticks (T2); settings: after 48 h
Procedure, shortened: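 Acetone solutions coated onto test tube walls and floor, giving 5 μg/cm^2 at 900 ppm. Five to ten adult ticks held per tube in the dark at room temperature for 48 h, then heated at 45-50° C for up to 5 min; efficacy is the percentage of dead or moribund ticks unable to climb away.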

[2] = test system: L1 larvae of the Australian sheep blowfly (Lucilia cuprina); assay: Lucilia cuprina test (LUCICU); type: in vivo; settings: application rate 100 ppm; after 2 days
Procedure, shortened: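 About 20 L1 larvae placed in a vessel with minced horsemeat plus compound (DMSO concentrate diluted with water to the desired concentration). Kill in % scored after 2 days, 100% meaning all larvae dead.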

[3] = test system: greenhouse red spider mite (Tetranychus urticae); assay: Tetranychus urticae spray test, OP-resistant (TETRUR); type: in vivo; settings: bean leaf discs, after 6 days
Procedure, shortened: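 Bean leaf discs carrying all stages of OP-resistant Tetranychus urticae were sprayed with compound formulated in acetone/dimethylformamide and diluted in water with 1000 ppm alkylaryl polyglycol ether emulsifier. Mortality (% efficacy, 100% = all mites killed) scored after 6 days.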

[4] = test system: cattle ticks (Boophilus microplus) Parkhurst strain, SP-resistant; assay: Boophilus microplus dip test (BOOPMI Dip); type: in vivo; settings: application rate 100 ppm, assessed after 7 days
Procedure, shortened: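 Adult engorged female SP-resistant Parkhurst ticks (8–10) were fully immersed in compound diluted in water from a DMSO solution, then kept in a climate-controlled room. After 7 days, fertile egg-laying was scored, with larval hatching checked at about 42 days; 100% efficacy means no fertile eggs.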

[5] = test system: green peach aphid (Myzus persicae); assay: Myzus persicae spray test (MYZUPE); type: in vivo; settings: Chinese cabbage leaf discs, after 6 days
Procedure, shortened: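 Chinese cabbage leaf discs infested with all aphid stages sprayed with compound in acetone/DMF with alkylaryl polyglycol ether emulsifier in water. Efficacy (% aphids killed; 100% all dead, 0% none) scored after 6 days.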

[6] = test system: Tick nymphs (Amblyomma hebraeum); assay: Amblyomma hebraeum test (AMBYHE), tick nymphs immersed; type: in vivo; settings: application rate 100 ppm; immersed one minute; after 42 days
Experimental: A. Amblyomma hebaraeum Test (AMBYHE)
Solvent: dimethyl sulphoxide
To produce a suitable preparation of active compound, 10 mg of active compound are mixed with 0.5 ml of dimethyl sulfoxide, and the concentrate is diluted with water to the desired concentration.
Tick nymphs (Amblyomma hebraeum) are placed into perforated plastic beakers and immersed in the desired concentration for one minute. The ticks are transferred on filter paper into a Petri dish and stored in a climate-controlled cabinet.
After 42 days, the kill in % is determined. 100% means that all of the ticks have been killed; 0% means that none of the ticks have been killed.

[7] = test system: bont tick nymphs (Amblyomma hebraeum); settings: after 48 h

SMILES	efficacy (dead or moribund ticks) ([1]; application rate 1 μg/cm^2) [%]	efficacy (dead or moribund ticks) ([1]; application rate 5 μg/cm^2) [%]	efficacy (kill in %) [2] [%]	efficacy in % ([3]; application rate 100 g/ha) [%]	efficacy (laying of fertile eggs) [4] [%]	efficacy in % ([5]; application rate 100 g/ha) [%]	efficacy (kill in %) [6] [%]	efficacy (dead or moribund ticks) [7] [%]	efficacy in % ([3]; application rate 500 g/ha) [%]	efficacy in % ([5]; application rate 500 g/ha) [%]
CN(C(=O)c1cc(-c2cnn(-c3c(C(F)(F)F)c(C(F)(F)C(F)(F)F)nn3C)c2)ccc1Cl)C1(C#N)CC1 [Ic-96]	100	100	100	100	100	100				
Cn1nc(C(F)(F)C(F)(F)F)c(C(F)(F)F)c1-n1cc(-c2ccc(Cl)c(C(=O)NCC(F)(F)F)c2)cn1 [Ic-23]	100	100	100	100	100		100	100		
Cn1nc(C(F)(F)C(F)(F)F)c(C(F)(F)F)c1-n1cc(-c2ccc(F)c(C(=O)NC3(C#N)CC3)c2)cn1 [Ic-36]	100	100	100	100	100	90	100			
Cn1nc(C(F)(F)C(F)(F)F)c(C(F)(F)F)c1-n1cc(-c2ccc(Br)c(C(=O)NC3(C#N)CC3)c2)cn1 [Ic-34]	80	100	100	100	100	90	100			
Cn1nc(C(F)(F)C(F)(F)F)c(C(F)(F)F)c1-n1cc(-c2cc(F)c(Cl)c(C(=O)NC3CC3)c2)cn1 [Ic-24]	100	100	100		100		100		100	90
Cn1nc(C(F)(F)C(F)(F)F)c(C(F)(F)F)c1-n1cc(-c2ccc(Cl)c(C(=O)NC3CC3F)c2)cn1 (stereo not drawn) [Ic-81]	100	100	100	100	100	90		100		
Cn1nc(C(F)(F)C(F)(F)F)c(C(F)(F)F)c1-n1cc(-c2ccc(Cl)c(C(=O)NCC(F)F)c2)cn1 [Ic-78]	100	100	100	100	100	90				
Cn1nc(C(F)(F)C(F)(F)F)c(C(F)(F)F)c1-n1cc(-c2cc(F)c(Cl)c(C(=O)NC3(C#N)CC3)c2)cn1 [Ic-27]	100	100	100		100		100		100	90
Cn1nc(C(F)(F)C(F)(F)F)c(C(F)(F)F)c1-n1cc(-c2ccc([N+](=O)[O-])c(C(=O)NC3CC3)c2)cn1 [Ic-66]	100	100	100	100	100	90				

Reference: patent publication US9487489B2, “Halogen-substituted pyrazole derivatives as pest-control agents” (BAYER CROPSCIENCE AKTIENGESELLSCHAFT, priority 2013, dated 2016)
